Measurements published in patent US20140248291A1, “Modulation of Cellular Migration” (THE UAB RESEARCH FOUNDATION, priority 2011, published 2014).

Experiments:
B2R = molecular target: T1, B2R (Homo sapiens, UniProt P30411); assay: calcium imaging (Fura-2), BK response with B2R antagonists; assay type: cell-based; settings: BK in presence of the B2R antagonist; for average peak of Ca2+ response: p<0.001 vs BK
T1 construct: endogenous in cells; host or cells: D54-MG / D54-MG-GFP human glioma cells
T1 sequence (P30411 1-391): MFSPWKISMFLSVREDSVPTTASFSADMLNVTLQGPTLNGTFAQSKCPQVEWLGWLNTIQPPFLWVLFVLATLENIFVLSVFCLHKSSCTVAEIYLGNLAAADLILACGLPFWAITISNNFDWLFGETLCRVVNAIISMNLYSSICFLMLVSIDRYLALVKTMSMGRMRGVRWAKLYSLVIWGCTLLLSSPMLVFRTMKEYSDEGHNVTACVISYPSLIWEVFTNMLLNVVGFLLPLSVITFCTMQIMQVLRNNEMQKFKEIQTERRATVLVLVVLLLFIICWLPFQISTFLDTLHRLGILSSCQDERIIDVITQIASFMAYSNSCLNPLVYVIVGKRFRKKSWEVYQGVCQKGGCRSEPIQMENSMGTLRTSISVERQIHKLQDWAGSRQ
Method: D54-MG cells were plated on 35-mm glass bottom dishes (MatTek, Corp., Ashland, Mass.) at ˜100×10^3 per dish and cultured for 2 days. pTRIPZ transfected cells, after stable selection, were plated at a density of ˜20×10^3 per dish and treated with […] doxycycline for 4 to 5 days to allow for sufficient protein knockdown. All cells were loaded in serum-free culture medium for 45 min with the ratiometric Ca^2+ dye Fura-2-acetoxymethylester (5 μmol/L; TEFLABS, Austin, Tex.) reconstituted in 20% wiv pluronic acid in DMSO (Invitrogen, Carlsbad, Calif.). Cells were rinsed with serum-free medium and allowed to rest in 7% serum-containing medium for 45 min at 37° C. The glass-bottom dishes were placed in an environmental chamber mounted on an inverted microscope. Cells were allowed to equilibrate in the chamber for 15 min before calcium images were collected. Following equilibration, recordings were obtained with an Olympus Disk Spinning Unit (DSU) fluorescent imaging microscope where cells were alternately excited at 340 and 380 nm using an x-cite illumination light source. Emitted light was collected at >520 nm. Images were digitized online using Slidebook 4.2 software (Intelligent Imaging Innovations, Denver, Colo.), and 340:380 nm ratios were obtained every 15 seconds. Following a 5 minute baseline recording every 15 seconds, BK was applied to the cells and imaging continued every 15 seconds for 30 or 60 minutes. In a subset of experiments, BK antagonists, HOE-140 and Bradyzide were applied to the cells. These experiments were repeated at least three times and data were pooled for statistical analysis.
Glioma cells respond to environmental clues as they invade the brain. It has been previously shown that the exposure of glioma cells to certain neuroligands induces increase in intracellular calcium concentrations. In this series of experiments, we investigated Ca^2+-responses in cultured D54-MG glioma cells, after addition of acetylcholine (ACh), ATP or BK. Glioma cells were loaded with the ratiometric Ca^2+-dye FURA2-AM, and imaged over 30 min.

D54-MG-GFP cells = assay: time-lapse motility assay in BK concentration gradient, D54-MG-GFP; assay type: cell-based, human; settings: for cells moved towards increasing BK concentration: BK gradient in presence of antagonist, cells moving in random fashion; for directionality of movement: antagonist in addition to BK
Method: Time-lapse studies were performed using a stably transfected daughter cell line from D54-MG cells that express EGFP, previously generated in the lab (Habela et al., 2009) and U251-EGFP cell line to visualize cells as they migrate. Increased motility was tested using an Ibidi chemotaxis chamber that is commercially available from Ibidi Scientific (Ibidi GmbH, Martinsried, Germany), and which has been used in previous studies (Kronlage et al., 2010; Fabian et al., 2010) with D54-EGFP MG cells seeded. Liquid chemical gradients were established in the μ-channel of the μ-chamber as follows: the dye Patent Blue V Blue Sodium Salt (1 mg/ml in medium) was mixed with equivolume of medium+/−1 mM stock of BK+/−1 mM stocks of HOE-140 or BZ; half of the volume was loaded in the well at one side of the μ-channel, and the identical volume was then aspirated from the well on the other side of the μ-channel. This created concentration gradient easily visualized by the dye. 12-15 different positions along the concentration gradient were imaged every 5 minutes over 5 hours period on a Zeiss Axiovert 200M system equipped with a Zeiss micro-incubation chamber that maintains cells at constant temperature (37° C.) and 95%/5% CO2/O2 for extended periods of time. We obtained images from different sections using 20× objective and FITC filter, along with DIC images. 500× neutral density filters and capture images using Axiovision software and a digital Axiocam HR 1 megapixel camera in 2*2 binning mode was used. Data was analyzed using the imaging tools provided by National Institutes of Health Image J and Tracking, and Chemotaxis and Migration Tool plugins (Jacobelli et al., 2009; Coller et al., 2009; Kronlage et al., 2010; Fabian et al., 2010) by randomly selecting 15 cells for each field of view. Cells treated with BK+/−antagonists were compared with controls where only dye was added. These experiments were repeated in triplicates.
As calcium dynamics are often correlated with cell motility time-lapse studies were performed using a stably transfected daughter cell line from D54-MG cells that expresses GFP to visualize cells as they migrate (FIG. 3A). Increased motility was tested in μ-slides in which a BK concentration gradient can be maintained.

[1] = system: MMP gelatinase activity of D54 MG cells; assay: in-situ zymography of gelatinolytic MMP activity (DQ gelatin); assay type: cell-based, human; settings: BK plus B2R antagonist
Method: To assess gelatinolytic MMP activity we used in situ zymography, as described previously (Deshane J et al, 2003). Briefly, after cell nuclei were labeled with Hoechst dye, fluorescein isothiocyanate-labeled DQ gelatin with BK+/−antagonists (Molecular Probes, Eugene, Oreg.) was applied overnight on the coverslips plated with D54 MG cells. Coverslips where drugs were omitted were processed in parallel and used as controls. At the end of the incubation period, cells were photographed by fluorescence microscopy with a Zeiss Axiovert 200 M microscope using a 20× objective. Quantification of fluorescent staining intensity after background subtraction was done using Slidebook 4.2 software (Intelligent Imaging Innovations, Denver, Colo.). Experiments were repeated three times.
To investigate the hypothesis that BK promotes glioma migration in vitro, we used Transwell migration assay which conveniently permit examination of cell migration across a membrane barrier with 8 μm pores towards vitronectin, a chemo-attractant extracellular matrix protein. This frequently used assay allows a quantitative study of drug effects with regards to drugs acting as motogens or as chemo-attractants. D54-MG-GFP glioma cells were allowed to migrate for 5 h in the presence/absence of neuroligands. […] Next, we tested glioma cell migration in various BK concentrations. […]

| SMILES | cells responded / cells imaged (B2R) | average peak of Ca2+ response (B2R) | cells moved towards increasing BK concentration (D54-MG-GFP cells) | directionality of movement (D54-MG-GFP cells) | MMP activity (fluorescence of DQ gelatin) [1] |
| --- | --- | --- | --- | --- | --- |
| N=C(N)NCCCC(NC(=O)[C@H](N)CCCNC(=N)N)C(=O)N1CCC[C@H]1C(=O)N1C[C@H](O)C[C@H]1C(=O)NCC(=O)N[C@@H](Cc1cccs1)C(=O)N[C@@H](CO)C(=O)N1Cc2ccccc2C[C@@H]1C(=O)N1C2CCCCC2C[C@H]1C(=O)N[C@H](CCCNC(=N)N)C(=O)O (stereo partly drawn) [HOE-140, D-Arg-[Hyp^3, Thi^5, D-Tic^7, Oic^8]bradykinin] | 22/162 | 0.15±0.01 | 8/15 | failed to show any directionality of movement | reduction of the fluorescence back to control levels |
| CN(C)CCN(C)CCNC(=O)[C@@H]1CCCN1S(=O)(=O)c1ccc(NNC(=S)NC(c2ccccc2)c2ccccc2)c([N+](=O)[O-])c1 [Bradyzide] | 156/300 | 0.15±0.02 | 6/15 | failed to show any directionality of movement | reduction of the fluorescence back to control levels |
